# Several values for one entry are separate records, joined by “and”; a condition that tells them apart may be missing. Equal entries are not always repeated.
# Target: Porcine pancreatic elastase (PPE) (Sus scrofa, UniProt P00772)
# Assay: Porcine pancreatic elastase (PPE) enzyme inhibitory assay
# Type: biochemical
# Conditions: for Average % inhibition: average of three; for Inhibition Rate (%): single determination
# Procedure: The elastase inhibitory activity of certain plant extracts was evaluated in vitro using Porcine pancreatic elastase (PPE) enzyme inhibitory assay as described by Cannel et al. (1988) with some modifications. The assay was performed in 0.2 M Tris-HCL buffer (pH 8.0). Porcine pancreatic elastase was dissolved to make a 100 unit stock solution in sterile water. The substrate N-Succinyl-Ala-Ala-Ala-p-nitroanilide (AAAPVN) was dissolved in buffer. The plant extracts were incubated with the enzyme for 25 minutes before adding the substrate to begin the reaction. […] EGCG was used as a positive control, and tris-HCl was used as the blank.
# Maximum Velocities (Vmax) were taken at a wavelength of 410 nm for 25 minutes at 30 second intervals. Percentage inhibitions were calculated by the following equation: […]
# where Vmax(sample) is the velocity of the sample extracts and Vmax(control) is the velocity of the assay using the buffer instead of inhibitor (sample).
# Sequence of Porcine pancreatic elastase (PPE) (P00772 27-266): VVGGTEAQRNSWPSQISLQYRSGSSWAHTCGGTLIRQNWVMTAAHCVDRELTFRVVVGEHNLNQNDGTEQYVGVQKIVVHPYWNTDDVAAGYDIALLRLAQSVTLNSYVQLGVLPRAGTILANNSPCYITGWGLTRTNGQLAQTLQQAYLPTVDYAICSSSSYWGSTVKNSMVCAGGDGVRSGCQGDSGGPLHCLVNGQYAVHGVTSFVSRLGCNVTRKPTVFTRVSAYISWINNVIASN
smiles,measurement,setting,value
"O=C(O[C@@H]1Cc2c(O)cc(O)cc2O[C@@H]1c1cc(O)c(O)c(O)c1)c1cc(O)c(O)c(O)c1 [EGCG, epigallocatechin gallate]",Average % inhibition,31.25 μg/ml,4.80%
same,Inhibition Rate (%),31.25 μg/ml,6.76% and 1.06% and 6.58%
same,Average % inhibition,62.5 μg/ml,15.57%
same,Inhibition Rate (%),62.5 μg/ml,20.43% and 14.78% and 11.52%
same,Average % inhibition,125 μg/ml,36.25%
same,Inhibition Rate (%),125 μg/ml,39.69% and 35.13% and 33.94%
same,Average % inhibition,250 μg/ml,41.56%
same,Inhibition Rate (%),250 μg/ml,45.23% and 41.13% and 38.32%
same,Average % inhibition,500 μg/ml,43.47%
same,Inhibition Rate (%),500 μg/ml,45.20% and 41.64% and 43.58%
same,Average % inhibition,1000 μg/ml,48.97%
same,Inhibition Rate (%),1000 μg/ml,49.48% and 47.89% and 49.56%
same,Average % inhibition,2000 μg/ml,52.78%
same,Inhibition Rate (%),2000 μg/ml,52.32% and 52.75% and 53.28%

# — US20250381131A1, “COMPOSITION AND METHOD FOR INHIBITING ELASTASE ACTIVITY” (ACCESS BUSINESS GROUP INTERNATIONAL LLC, priority 2022, published 2025)
